One assay deals with PI3Kdelta (Homo sapiens (Human), UniProt O00329). In words: HTRF PI3K biochemical assay, delta isoform. The following applies: 0.3 nM enzyme, 100 uM ATP, 5 uM PIP2, form screened: Neutral. The essentials:
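0.3 nM PI3Kδ, pre-incubated 15 min at RT with compound (10-point 3-fold series), then reacted 1 h at RT with 100 uM ATP and 5 uM PIP2. After EDTA stop, PIP3 product detected by HTRF competition (GST-GRP1-PH, biotin-PIP3, Eu anti-GST, SA-APC), read 665/620 nm after 1 h.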

For the next assay, the target named is PI3Kalpha (Homo sapiens (Human), UniProt P42336). The assay can be described thus: HTRF PI3K biochemical assay, alpha isoform (selectivity versus PI3Kalpha). The following applies: relative ratio (PI3K-alpha IC50 value/PI3K-delta IC50 value); form screened: Neutral. The essentials:
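Uses recombinant PI3Kalpha at 0.5 nM with 100 uM ATP and 5 uM PIP2, after a 15 min RT compound pre-incubation and a 1 h RT reaction. PIP3 product displaces biotin-PIP3 from GST-GRP1 PH domain, read as HTRF 665/620 ratio. IC50 from a 10-point dose response, corrected via a PIP3 standard curve.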
On the technique in general: TR-FRET usually uses a lanthanide donor and a delayed reading to cut background.

We go through nine compounds from patent US10221178B2, “Purine inhibitors of human phosphatidylinositol 3-kinase delta” (MERCK SHARP & DOHME CORP., priority 2015, dated 2019).

Some results are limits rather than exact numbers.

Sequence of PI3Kalpha (P42336 whole entry, the tested form may be a part, canonical isoform): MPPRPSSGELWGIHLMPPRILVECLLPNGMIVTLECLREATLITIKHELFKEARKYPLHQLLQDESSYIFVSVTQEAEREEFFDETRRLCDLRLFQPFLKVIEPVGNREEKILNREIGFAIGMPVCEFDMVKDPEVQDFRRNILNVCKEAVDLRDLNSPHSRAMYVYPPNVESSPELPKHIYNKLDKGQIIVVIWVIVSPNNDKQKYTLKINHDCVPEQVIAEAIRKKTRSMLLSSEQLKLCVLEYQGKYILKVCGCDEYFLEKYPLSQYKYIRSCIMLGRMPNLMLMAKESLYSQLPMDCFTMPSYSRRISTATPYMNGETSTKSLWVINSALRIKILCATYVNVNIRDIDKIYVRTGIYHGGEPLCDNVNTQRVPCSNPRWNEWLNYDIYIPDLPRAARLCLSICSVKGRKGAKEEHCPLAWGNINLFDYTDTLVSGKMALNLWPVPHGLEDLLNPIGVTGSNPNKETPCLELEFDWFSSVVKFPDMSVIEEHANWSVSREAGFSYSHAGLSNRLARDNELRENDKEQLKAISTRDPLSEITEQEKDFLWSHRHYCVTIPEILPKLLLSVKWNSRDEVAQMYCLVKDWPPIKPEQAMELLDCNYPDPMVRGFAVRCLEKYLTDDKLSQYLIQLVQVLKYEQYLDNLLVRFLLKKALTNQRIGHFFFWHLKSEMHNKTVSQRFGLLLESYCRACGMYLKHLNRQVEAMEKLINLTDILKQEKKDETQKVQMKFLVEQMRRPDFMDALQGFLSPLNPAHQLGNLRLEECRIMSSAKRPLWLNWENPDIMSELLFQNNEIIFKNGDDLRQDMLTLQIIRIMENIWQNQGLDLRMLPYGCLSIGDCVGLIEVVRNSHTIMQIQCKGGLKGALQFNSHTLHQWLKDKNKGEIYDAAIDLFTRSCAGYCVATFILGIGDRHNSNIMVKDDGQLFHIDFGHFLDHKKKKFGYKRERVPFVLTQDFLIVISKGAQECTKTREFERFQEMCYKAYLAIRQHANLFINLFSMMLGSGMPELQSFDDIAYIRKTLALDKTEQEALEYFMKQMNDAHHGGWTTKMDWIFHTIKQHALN
Sequence of PI3Kalpha (P27986 whole entry partner, the tested form may be a part, canonical isoform): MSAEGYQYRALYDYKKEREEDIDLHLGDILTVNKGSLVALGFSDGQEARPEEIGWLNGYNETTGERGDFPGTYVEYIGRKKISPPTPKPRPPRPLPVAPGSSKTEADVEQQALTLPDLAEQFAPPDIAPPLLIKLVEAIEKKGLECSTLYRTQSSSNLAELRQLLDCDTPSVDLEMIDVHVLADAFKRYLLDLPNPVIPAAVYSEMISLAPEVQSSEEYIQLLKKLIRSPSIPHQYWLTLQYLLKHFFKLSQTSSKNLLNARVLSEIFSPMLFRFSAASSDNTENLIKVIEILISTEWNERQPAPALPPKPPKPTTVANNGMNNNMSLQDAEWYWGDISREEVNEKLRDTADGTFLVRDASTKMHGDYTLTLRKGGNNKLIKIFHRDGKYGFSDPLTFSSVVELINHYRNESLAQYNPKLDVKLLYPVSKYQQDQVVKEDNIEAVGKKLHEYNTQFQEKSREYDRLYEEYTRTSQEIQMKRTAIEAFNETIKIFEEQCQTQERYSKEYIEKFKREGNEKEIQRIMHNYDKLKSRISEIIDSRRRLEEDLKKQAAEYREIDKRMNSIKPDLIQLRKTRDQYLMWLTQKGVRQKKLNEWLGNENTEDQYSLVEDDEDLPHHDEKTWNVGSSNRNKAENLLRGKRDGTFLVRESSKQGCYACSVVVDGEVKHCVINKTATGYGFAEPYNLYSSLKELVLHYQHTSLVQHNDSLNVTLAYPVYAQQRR
Sequence of PI3Kdelta (O00329 whole entry, canonical isoform): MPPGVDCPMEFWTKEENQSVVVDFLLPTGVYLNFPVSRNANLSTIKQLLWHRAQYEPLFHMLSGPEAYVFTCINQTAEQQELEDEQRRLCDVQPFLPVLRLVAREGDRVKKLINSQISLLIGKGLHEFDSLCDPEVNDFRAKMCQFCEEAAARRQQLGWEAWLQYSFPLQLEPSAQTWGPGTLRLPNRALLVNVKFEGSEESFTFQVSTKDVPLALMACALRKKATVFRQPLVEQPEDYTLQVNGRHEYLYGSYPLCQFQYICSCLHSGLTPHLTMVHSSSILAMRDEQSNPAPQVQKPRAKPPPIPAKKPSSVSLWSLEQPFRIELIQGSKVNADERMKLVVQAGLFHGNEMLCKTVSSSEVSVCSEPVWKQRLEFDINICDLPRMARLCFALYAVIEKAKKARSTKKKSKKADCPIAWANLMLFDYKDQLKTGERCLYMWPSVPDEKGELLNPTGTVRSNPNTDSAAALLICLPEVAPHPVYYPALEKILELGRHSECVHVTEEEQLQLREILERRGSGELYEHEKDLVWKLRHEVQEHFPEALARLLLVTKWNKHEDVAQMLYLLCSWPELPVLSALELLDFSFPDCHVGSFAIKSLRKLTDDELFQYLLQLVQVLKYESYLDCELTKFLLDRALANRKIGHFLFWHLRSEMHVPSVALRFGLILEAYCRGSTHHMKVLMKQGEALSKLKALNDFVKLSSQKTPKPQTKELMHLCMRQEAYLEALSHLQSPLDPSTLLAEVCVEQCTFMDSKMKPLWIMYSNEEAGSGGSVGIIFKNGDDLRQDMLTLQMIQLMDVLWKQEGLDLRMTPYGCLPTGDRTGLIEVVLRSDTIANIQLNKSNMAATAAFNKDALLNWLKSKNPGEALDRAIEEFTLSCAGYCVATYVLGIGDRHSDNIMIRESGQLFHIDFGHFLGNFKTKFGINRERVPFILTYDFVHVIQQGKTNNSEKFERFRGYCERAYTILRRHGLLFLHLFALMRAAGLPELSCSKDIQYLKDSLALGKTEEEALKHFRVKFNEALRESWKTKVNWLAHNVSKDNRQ
Sequence of PI3Kdelta (P27986 whole entry partner, canonical isoform): as the sequence (P27986 whole entry partner, the tested form may be a part, canonical isoform) above

For orientation: IC50 means the point on the concentration scale where inhibition reaches its midpoint. Read a low IC50 as greater potency in that assay. Turning to `CCn1ncc(-c2nc3c(N[C@H](Cc4ccccc4)C(=O)N4CCOCC4)ncnc3n2C)c1C` [Compound 2-1, N-[(1R)-1-benzyl-2-morpholin-4-yl-2-oxoethyl]-8-(1-ethyl-5-methyl-1H-pyrazol-4-yl)-9-methyl-9H-purin-6-amine], on PI3Kdelta, the 50% inhibitory concentration (IC50) amounted to 15 nM. The “Selectivity versus PI3Kalpha” value at PI3Kalpha is on record as >10.
Regarding `CCn1c(-c2cnc(C)nc2)nc2c(N[C@H](CC(=O)N3C[C@@H](C)O[C@@H](C)C3)C(C)C)ncnc21` [Compound 2-58, N-[(1R)-3-[(cis)-2,6-dimethylmorpholin-4-yl]-1-(1-methylethyl)-3-oxopropyl]-9-ethyl-8-(2-methylpyrimidin-5-yl)-9H-purin-6-amine], at PI3Kdelta, the midpoint of inhibition, the IC50, lay at 290 nM. On PI3Kalpha, the “Selectivity versus PI3Kalpha” value was >10.
Compound `CC[C@H](Nc1ncnc2c1nc(-c1cnc(C)nc1)n2CC)C(=O)N1CCOCC1CO` (mixture of isomers) [Compound 2-37, {4-[(2S)-2-{[9-ethyl-8-(2-methylpyrimidin-5-yl)-9H-purin-6-yl]amino}butanoyl]-(R and S)-morpholin-3-yl}methanol] gave a concentration for half-maximal inhibition (IC50) against PI3Kdelta of 64 nM. Besides, the “Selectivity versus PI3Kalpha” value on PI3Kalpha is >10.
`CC[C@H](Nc1ncnc2c1nc(-c1cnc(C)nc1)n2CC)C(=O)N1CCCC(C)C1` (mixture of isomers) [Compound 2-23, 9-ethyl-N-{(1S)-1-[((R and S)-3-methylpiperidin-1-yl)carbonyl]propyl}-8-(2-methylpyrimidin-5-yl)-9H-purin-6-amine]: 9.3 nM corresponded to half-maximal inhibition at PI3Kdelta (IC50). Also, on PI3Kalpha, the “Selectivity versus PI3Kalpha” value is on record as >10.
For `CC[C@H](Nc1ncnc2c1nc(-c1cnc(C)nc1)n2CC)C(=O)N1CCOC(COC)C1` (stereo partly drawn) [Compound 2-35, 9-ethyl-N-[(1S)-1-{[2-(methoxymethyl)morpholin-4 yl]carbonyl}propyl]-8-(2-methylpyrimidin-5-yl)-9H-purin-6-amine], in that order: 39 nM and >10.
`CCn1c(-c2cnc(C)nc2)nc2c(N[C@H](C(=O)N3C[C@@H](C)O[C@@H](C)C3)C3CCCC3)ncnc21` [Compound 2-48, N-{(1S)-1-cyclopentyl-2-[(cis)-2,6-dimethylmorpholin-4-yl]-2-oxoethyl}-9-ethyl-8-(2-methylpyrimidin-5-yl)-9H-purin-6-amine] yielded an IC50 at PI3Kdelta of 55 nM. For the same compound, on PI3Kalpha, the “Selectivity versus PI3Kalpha” value is listed as >10.
`CCn1c(-c2cnc(C)nc2)nc2c(N[C@@H](CN(C)C)C(=O)N3C[C@@H](C)O[C@@H](C)C3)ncnc21` [Compound 2-51, (2S)-3-[(cis)-2,6-dimethylmorpholin-4-yl]-N-2-[9-ethyl-8-(2-methylpyrimidin-5-yl)-9H-purin-6-yl]-N-1-,N-1-dimethyl-3-oxopropane-1,2-diamine]: on PI3Kdelta, it took 420 nM to reach half-maximal inhibition (IC50). For the same compound, at PI3Kalpha, the “Selectivity versus PI3Kalpha” value is on record as >10.
Taken in the same sequence, the figures for `CCn1c(-c2cnc(C)nc2)nc2c(NCC3(C(=O)N4CCCC4)CC3)ncnc21` [Compound 2-61, 9-ethyl-8-(2-methylpyrimidin-5-yl)-N-{[1-(pyrrolidin-1-ylcarbonyl)cyclopropyl]methyl}-9H-purin-6-amine] were 93 nM and >10.
Consider `CC[C@H](Nc1ncnc2c1nc(-c1cnc(C)nc1)n2CC)C(=O)N1CCOCC12CCC2` [Compound 2-27, 9-ethyl-8-(2-methylpyrimidin-5-yl)-N-[(1S)-1-(8-oxa-5-azaspiro[3.5]non-5-ylcarbonyl)propyl]-9H-purin-6-amine], for which 11 nM corresponded to half-maximal inhibition at PI3Kdelta (IC50). Further, the “Selectivity versus PI3Kalpha” value at PI3Kalpha was >10.
